Laboratory results reported in patent US9296741B2, “Bromodomain inhibitors” (priority 2012, dated 2016).
pEC50, pKi: −log10 of the molar value. Where two headings read alike, the source gives them in different places.

Assays:
[1] = Human liver microsome stability assay; format: in vitro ADME; details: human, microsomes, pH 7.4; for half-life at 0.5 μM: both sexes
[2] = target: human BRD4 first bromodomain (BDI_K57-E168) (Homo sapiens (Human), UniProt O60885); experiment: TR-FRET bromodomain binding assay, BRD4 first bromodomain
[3] = target: human BRD4 second bromodomain (BDII_E352-M457) (Homo sapiens (Human), UniProt O60885); experiment: TR-FRET bromodomain binding assay, BRD4 second bromodomain
[4] = test system: breast cancer cell line MX-1; experiment: MX-1 cell line proliferation assay; format: cell-based, human; details: MX-1 cells, 3-day proliferation, Cell Titer Glo, read-out: Cellular proliferation: EC50
[5] = Rat liver microsome stability assay; format: in vitro ADME; details: for half-life at 0.5 μM: rat liver microsomes (male Sprague-Dawley), 0.5 μM test compound, 0.25 mg/mL microsomal protein, pH 7.4, 37° C., read-out: Stability in rat liver microsomes (t1/2 in minutes)
[6] = Mouse liver microsome stability assay; format: in vitro ADME; details: microsomes, pH 7.4; for half-life at 0.5 μM: male, CD1, mouse

SMILES	half-life at 0.5 μM [1]	pKi [2]	pKi [3]	pEC50 ([4]; Homo sapiens, MX1, 72 h)	half-life at 0.5 μM [5]	half-life at 0.5 μM [6]	Stability in human liver microsomes (t1/2 in minutes) [1]	pEC50 [4]	Stability in rat liver microsomes (t1/2 in minutes) ([5]; rat, microsomes, pH 7.4)	Stability in mouse liver microsomes (t1/2 in minutes) ([6]; mouse)
Cn1cc(-c2cc(S(C)(=O)=O)ccc2NCC2CCOC2)c2cc[nH]c2c1=O (stereo not drawn) [Example 201, 6-methyl-4-{5-(methylsulfonyl)-2-[(tetrahydrofuran-3-ylmethyl)amino]phenyl}-1,6-dihydro-7H-pyrrolo[2,3-c]pyridin-7-one]	56 min	7.99	7.39	6.87	117 min	> 120 min	–	–	–	–
Cn1cc(-c2cc(S(C)(=O)=O)ccc2OCC2(F)COC2)c2cc[nH]c2c1=O [Example 206, 4-{2-[(3-fluorooxetan-3-yl)methoxy]-5-(methylsulfonyl)phenyl}-6-methyl-1,6-dihydro-7H-pyrrolo[2,3-c]pyridin-7-one]	> 120 min	7.94	7.64	7.11	118 min	95 min	–	–	–	–
CNS(=O)(=O)c1cnc(OCC2CC2)c(-c2cn(C)c(=O)c3[nH]ccc23)c1 [Example 208, 6-(cyclopropylmethoxy)-N-methyl-5-(6-methyl-7-oxo-6,7-dihydro-1H-pyrrolo[2,3-c]pyridin-4-yl)pyridine-3-sulfonamide]	88 min	8.25	8.22	7.63	23 min	37 min	–	–	–	–
Cn1cc(-c2cc(S(N)(=O)=O)cnc2NCC2CC2)c2cc[nH]c2c1=O [Example 209, 6-[(cyclopropylmethyl)amino]-5-(6-methyl-7-oxo-6,7-dihydro-1H-pyrrolo[2,3-c]pyridin-4-yl)pyridine-3-sulfonamide]	> 120 min	8.34	8.44	7.43	105 min	116 min	–	–	–	–
CCS(=O)(=O)c1ccc(O[C@H]2CC[C@@](C)(O)CC2)c(-c2cn(C)c(=O)c3[nH]ccc23)c1 [Example 211, 4-{5-(ethylsulfonyl)-2-[(cis-4-hydroxy-4-methylcyclohexyl)oxy]phenyl}-6-methyl-1,6-dihydro-7H-pyrrolo[2,3-c]pyridin-7-one]	–	8.85	8.68	–	–	–	65 min	7.92	48 min	63 min
Cn1cc(-c2cc(S(C)(=O)=O)ccc2OC2CCC2)c2cc[nH]c2c1=O [Example 213, 4-[2-(cyclobutyloxy)-5-(methylsulfonyl)phenyl]-6-methyl-1,6-dihydro-7H-pyrrolo[2,3-c]pyridin-7-one]	79 min	8.49	8.32	7.54	38 min	89 min	–	–	–	–
Cn1cc(-c2cc(S(C)(=O)=O)ccc2OCC2CCCC2)c2cc[nH]c2c1=O [Example 214, 4-[2-(cyclopentylmethoxy)-5-(methylsulfonyl)phenyl]-6-methyl-1,6-dihydro-7H-pyrrolo[2,3-c]pyridin-7-one]	27 min	8.62	8.77	7.98	9 min	8 min	–	–	–	–
Cn1cc(-c2cc(S(C)(=O)=O)ccc2OC2CCCCC2)c2cc[nH]c2c1=O [Example 215, 4-[2-(cyclohexyloxy)-5-(methylsulfonyl)phenyl]-6-methyl-1,6-dihydro-7H-pyrrolo[2,3-c]pyridin-7-one]	12 min	9.08	9.34	8.72	6 min	11 min	–	–	–	–
Cn1cc(-c2cc(S(C)(=O)=O)ccc2OCC2CCOC2)c2cc[nH]c2c1=O (stereo not drawn) [Example 217, 6-methyl-4-[5-(methylsulfonyl)-2-(tetrahydrofuran-3-ylmethoxy)phenyl]-1,6-dihydro-7H-pyrrolo[2,3-c]pyridin-7-one]	70 min	8.48	8.09	7.47	101 min	68 min	–	–	–	–
CC(COC(C)(C)C)Oc1ccc(S(C)(=O)=O)cc1-c1cn(C)c(=O)c2[nH]ccc12 (stereo not drawn) [Example 229, 4-{2-[(1-tert-butoxypropan-2-yl)oxy]-5-(methylsulfonyl)phenyl}-6-methyl-1,6-dihydro-7H-pyrrolo[2,3-c]pyridin-7-one]	25 min	7.46	7.21	6.54	33 min	9 min	–	–	–	–

The next lines start with the values.

half-life at 0.5 μM [1]	pKi [2]	pKi [3]	pEC50 ([4]; Homo sapiens, MX1, 72 h)	half-life at 0.5 μM [5]	half-life at 0.5 μM [6]	Stability in human liver microsomes (t1/2 in minutes) [1]	pEC50 [4]	Stability in rat liver microsomes (t1/2 in minutes) ([5]; rat, microsomes, pH 7.4)	Stability in mouse liver microsomes (t1/2 in minutes) ([6]; mouse)	SMILES
5 min	8.55	8.92	7.67	5 min	4 min	–	–	–	–	Cn1cc(-c2cc(S(C)(=O)=O)ccc2OC2CCCCCC2)c2cc[nH]c2c1=O [Example 220, 4-[2-(cycloheptyloxy)-5-(methylsulfonyl)phenyl]-6-methyl-1,6-dihydro-7H-pyrrolo[2,3-c]pyridin-7-one]
63 min	8.18	8.30	8.21	24 min	43 min	–	–	–	–	CC(C)COc1ccc(S(C)(=O)=O)cc1-c1cn(C)c(=O)c2[nH]ccc12 [Example 221, 6-methyl-4-[2-(2-methylpropoxy)-5-(methylsulfonyl)phenyl]-1,6-dihydro-7H-pyrrolo[2,3-c]pyridin-7-one]
6 min	8.16	8.15	8.12	8 min	5 min	–	–	–	–	Cn1cc(-c2cc(S(C)(=O)=O)ccc2OCC2CCCCC2)c2cc[nH]c2c1=O [Example 224, 4-[2-(cyclohexylmethoxy)-5-(methylsulfonyl)phenyl]-6-methyl-1,6-dihydro-7H-pyrrolo[2,3-c]pyridin-7-one]
105 min	6.85	6.36	< 5.52	> 120 min	> 120 min	–	–	–	–	Cn1cc(-c2cc(S(C)(=O)=O)ccc2OC[C@H]2CCC(=O)N2)c2cc[nH]c2c1=O [Example 226, 6-methyl-4-[5-(methylsulfonyl)-2-{[(2R)-5-oxopyrrolidin-2-yl]methoxy}phenyl]-1,6-dihydro-7H-pyrrolo[2,3-c]pyridin-7-one]
50 min	7.13	6.68	6.18	70 min	> 120 min	–	–	–	–	Cn1cc(-c2cc(S(C)(=O)=O)ccc2OCCN2CCOCC2)c2cc[nH]c2c1=O [Example 227, 6-methyl-4-{5-(methylsulfonyl)-2-[2-(morpholin-4-yl)ethoxy]phenyl}-1,6-dihydro-7H-pyrrolo[2,3-c]pyridin-7-one]
> 120 min	7.41	6.97	< 5.52	107 min	> 120 min	–	–	–	–	Cn1cc(-c2cc(S(C)(=O)=O)ccc2OC[C@@H]2CCC(=O)N2)c2cc[nH]c2c1=O [Example 228, 6-methyl-4-[5-(methylsulfonyl)-2-{[(2S)-5-oxopyrrolidin-2-yl]methoxy}phenyl]-1,6-dihydro-7H-pyrrolo[2,3-c]pyridin-7-one]
6 min	8.59	8.82	7.63	8 min	7 min	–	–	–	–	Cn1cc(-c2cc(S(C)(=O)=O)ccc2OCC2C[C@@H]3CC[C@H]2C3)c2cc[nH]c2c1=O (stereo partly drawn) [Example 230, 4-{2-[(1S,4R)-bicyclo[2.2.1]hept-2-ylmethoxy]-5-(methylsulfonyl)phenyl}-6-methyl-1,6-dihydro-7H-pyrrolo[2,3-c]pyridin-7-one]
81 min	7.76	8.15	7.18	49 min	22 min	–	–	–	–	Cn1cc(-c2cc(NS(=O)(=O)C3CC3)ccc2Oc2ccc(F)cc2F)c2cc[nH]c2c1=O [Example 235, N-[4-(2,4-difluorophenoxy)-3-(6-methyl-7-oxo-6,7-dihydro-1H-pyrrolo[2,3-c]pyridin-4-yl)phenyl]cyclopropanesulfonamide]
33 min	7.84	8.29	7.60	32 min	15 min	–	–	–	–	COCCS(=O)(=O)Nc1ccc(Oc2ccc(F)cc2F)c(-c2cn(C)c(=O)c3[nH]ccc23)c1 [Example 236, N-[4-(2,4-difluorophenoxy)-3-(6-methyl-7-oxo-6,7-dihydro-1H-pyrrolo[2,3-c]pyridin-4-yl)phenyl]-2-methoxyethanesulfonamide]
3 min	8.52	8.46	7.46	7 min	2 min	–	–	–	–	Cn1cc(-c2cc(S(C)(=O)=O)ccc2OC2C3CC4CC(C3)CC2C4)c2cc[nH]c2c1=O (stereo not drawn) [Example 237, 6-methyl-4-{5-(methylsulfonyl)-2-[tricyclo[3.3.1.1^3,7]dec-2-yloxy]phenyl}-1,6-dihydro-7H-pyrrolo[2,3-c]pyridin-7-one]
> 120 min	7.94	7.42	6.60	20 min	109 min	–	–	–	–	Cn1cc(-c2cc(S(=O)(=O)C(F)(F)F)ccc2OCC2CC2)c2cc[nH]c2c1=O [Example 243, 4-{2-(cyclopropylmethoxy)-5-[(trifluoromethyl)sulfonyl]phenyl}-6-methyl-1,6-dihydro-7H-pyrrolo[2,3-c]pyridin-7-one]
